Measurements as given in patent US20230066946A1, “1,5-DIPHENYLPYRAZOLYL-3-OXYALKYL ACIDS AND 1-PHENYL-5-THIENYLPYRAZOLYL-3-OXYALKYL ACIDS AND THE USE THEREOF FOR CONTROL OF UNWANTED PLANT GROWTH” (Bayer Aktiengesellschaft, priority 2019, published 2023).
Values joined by “and” are separate entries in the source; they are usually repeats but may differ in a detail not shown here. Equal values may be shown once.

Legend:
POLCO [1] = test: Pre-emergence herbicidal action against POLCO; type: in vivo, Polygonum convolvulus; settings: 320 g/ha, scored visually after about 3 weeks vs untreated controls
Method in brief: (§1)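 Pre-emergence, sandy loam, pots doubly sown. WP/EC formulations + 0.5% additive, 600 L/ha water, sprayed on soil surface; 1280 or 320 g/ha. Greenhouse ~3 wk; visual % effect vs untreated.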

POLCO [2] = test: Post-emergence herbicidal action against POLCO; type: in vivo, Polygonum convolvulus; settings: 320 g/ha, visual rating about 3 weeks after treatment
Method in brief: (§2)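 Visual scoring, where 100% = dead and 0% = like untreated plants, was done about 3 weeks after treatment. Dose was 1280 or 320 g/ha, delivered as aqueous WP/EC suspension or emulsion with 0.5% additive at 600 L/ha. Pot-grown weeds in sandy loam were treated post-emergence at one leaf, 2-3 weeks post-sowing.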

AMARE [3] = test: Post-emergence herbicidal action against AMARE; type: in vivo, Amaranthus retroflexus; settings: visual rating about 3 weeks after treatment
Method in brief: as §2

VERPE [4] = test: Post-emergence herbicidal action against VERPE; type: in vivo, Veronica persica; settings: 320 g/ha, visual rating about 3 weeks after treatment
Method in brief: as §2

STEME [5] = test: Pre-emergence herbicidal action against STEME; type: in vivo, Stellaria media; settings: scored visually after about 3 weeks vs untreated controls
Method in brief: as §1

harmful plants = test: Pre-emergence herbicidal action, summary of Tables 4.1-4.15; type: in vivo; settings: result in words
Method in brief: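 Percent herbicidal action (100% = plants dead, 0% = like controls) was assessed visually about 3 weeks after treatment. Application rates of 1280 or 320 g/ha were applied to the covering soil of freshly sown sandy-loam pots, in 600 l/ha water with 0.5% additive, before emergence.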

MATIN [6] = test: Pre-emergence herbicidal action against MATIN; type: in vivo, Matricaria inodora; settings: 1280 g/ha, scored visually after about 3 weeks vs untreated controls
Method in brief: as §1

SETVI [7] = test: Post-emergence herbicidal action against SETVI; type: in vivo, Setaria viridis; settings: 1280 g/ha, post-emergence at one-leaf stage, rated visually after about 3 weeks vs untreated controls
Method in brief: as §2

MATIN [8] = test: Post-emergence herbicidal action against MATIN; type: in vivo, Matricaria inodora; settings: visual rating about 3 weeks after treatment
Method in brief: as §2

AVEFA [9] = test: Post-emergence herbicidal action against AVEFA; type: in vivo, Avena fatua; settings: 1280 g/ha, post-emergence at one-leaf stage, rated visually after about 3 weeks vs untreated controls
Protocol: (§3) [table] Seeds of mono- and dicotyledonous weed plants are placed in plastic pots in sandy loam soil (twin sowing with one species each of mono- or dicotyledonous weed plants per pot), covered with soil and cultivated in a greenhouse under controlled growth conditions. 2 to 3 weeks after sowing, the test plants are treated at the one-leaf stage. The compounds of the invention, formulated in the form of wettable powders (WP) or as emulsion concentrates (EC), are applied to the green parts of the plants as aqueous suspension or emulsion with addition of 0.5% additive at a water application rate equivalent to 600 litres per hectare. After the test plants have been kept in the greenhouse under optimum growth conditions for about 3 weeks, the activity of the preparations is rated visually in comparison to untreated controls. For example, 100% activity=the plants have died, 0% activity=like control plants. Tables 5.1-5.16 below show the effects of selected compounds of the general formula (I) according to Tables 1 to 3 on various harmful plants at an application rate corresponding to 1280 or 320 g/ha, which have been obtained by the aforementioned experimental method.

HORMU [10] = test: Pre-emergence herbicidal action against HORMU; type: in vivo, Hordeum murinum; settings: 320 g/ha, scored visually after about 3 weeks vs untreated controls
Description: (§4) Seeds of mono- and dicotyledonous weed plants are placed in plastic pots in sandy loam soil (doubly sown with one species each of mono- or dicotyledonous weed plants per pot) and covered with soil. The compounds of the invention, formulated in the form of wettable powders (WP) or as emulsion concentrates (EC), are then applied onto the surface of the covering soil as aqueous suspension or emulsion with addition of 0.5% additive at a water application rate equivalent to 600 litres per hectare. After the treatment, the pots are placed in a greenhouse and kept under good growth conditions for the trial plants. After about 3 weeks, the effect of the preparations is scored visually in comparison with untreated controls as percentages. For example, 100% activity=the plants have died, 0% activity=like control plants. [table] Tables 4.1-4.15 below show the effects of selected compounds of the general formula (I) according to Tables 1 to 3 on various harmful plants at an application rate corresponding to 1280 or 320 g/ha, which have been obtained by the aforementioned experimental method.

ALOMY [11] = test: Pre-emergence herbicidal action against ALOMY; type: in vivo, Alopecurus myosuroides; settings: scored visually after about 3 weeks vs untreated controls, 100% = plants have died, 0% = like control plants
Method in brief: as §1

AMARE [12] = test: Pre-emergence herbicidal action against AMARE; type: in vivo, Amaranthus retroflexus; settings: scored visually after about 3 weeks vs untreated controls; for Pre-emergence action at 320 g/ha against AMARE in %: 100% = plants have died, 0% = like control plants; for Pre-emergence action against AMARE in %: 1280 g/ha
Method in brief: as §1

CYPES = test: Pre-emergence herbicidal action against CYPES; type: in vivo, Cyperus esculentus; settings: scored visually after about 3 weeks vs untreated controls, 100% = plants have died, 0% = like control plants
Method in brief: as §1

PHBPU [13] = test: Post-emergence herbicidal action against PHBPU; type: in vivo, Pharbitis purpurea; settings: 320 g/ha, visual rating about 3 weeks after treatment
Method in brief: as §2

SETVI [14] = test: Pre-emergence herbicidal action against SETVI; type: in vivo, Setaria viridis; settings: 1280 g/ha, scored visually after about 3 weeks vs untreated controls
Method in brief: as §1

VIOTR [15] = test: Pre-emergence herbicidal action against VIOTR; type: in vivo, Viola tricolor; settings: 1280 g/ha, scored visually after about 3 weeks vs untreated controls
Method in brief: as §1

STEME [16] = test: Post-emergence herbicidal action against STEME; type: in vivo, Stellaria media; settings: visual rating about 3 weeks after treatment
Method in brief: as §2

AVEFA [17] = test: Pre-emergence herbicidal action against AVEFA; type: in vivo, Avena fatua; settings: scored visually after about 3 weeks vs untreated controls, 100% = plants have died, 0% = like control plants
Description: as §4

ALOMY [18] = test: Post-emergence herbicidal action against ALOMY; type: in vivo, Alopecurus myosuroides; settings: 1280 g/ha, post-emergence at one-leaf stage, rated visually after about 3 weeks vs untreated controls
Method in brief: as §2

PHBPU [19] = test: Pre-emergence herbicidal action against PHBPU; type: in vivo, Pharbitis purpurea; settings: 1280 g/ha, scored visually after about 3 weeks vs untreated controls
Description: as §4

LOLRI = test: Post-emergence herbicidal action against LOLRI; type: in vivo, Lolium rigidum; settings: 1280 g/ha, post-emergence at one-leaf stage, rated visually after about 3 weeks vs untreated controls
Protocol: as §3

ECHCG [20] = test: Pre-emergence herbicidal action against ECHCG; type: in vivo, Echinochloa crus-galli; settings: scored visually after about 3 weeks vs untreated controls, 100% = plants have died, 0% = like control plants
Method in brief: as §1

VERPE [21] = test: Pre-emergence herbicidal action against VERPE; type: in vivo, Veronica persica; settings: 320 g/ha, scored visually after about 3 weeks vs untreated controls
Method in brief: as §1

HORMU [22] = test: Post-emergence herbicidal action against HORMU; type: in vivo, Hordeum murinum; settings: 320 g/ha, visual rating about 3 weeks after treatment
Protocol: as §3

ECHCG [23] = test: Post-emergence herbicidal action against ECHCG; type: in vivo, Echinochloa crus-galli; settings: 1280 g/ha, post-emergence at one-leaf stage, rated visually after about 3 weeks vs untreated controls
Method in brief: as §2

VIOTR [24] = test: Post-emergence herbicidal action against VIOTR; type: in vivo, Viola tricolor; settings: 320 g/ha, visual rating about 3 weeks after treatment
Method in brief: as §2

| Structure (SMILES) | Pre-emergence action against POLCO in % (POLCO [1]) [%] | Post-emergence action against POLCO in % (POLCO [2]) [%] | Post-emergence action against AMARE in % (AMARE [3]; 320 g/ha) [%] | Post-emergence action against AMARE in % (AMARE [3]; 1280 g/ha) [%] | Post-emergence action against VERPE in % (VERPE [4]) [%] | Pre-emergence action against STEME in % (STEME [5]; 1280 g/ha) [%] | herbicidal efficacy against harmful plants in the case of pre-emergence treatment (harmful plants) | Pre-emergence action against MATIN in % (MATIN [6]) [%] | Post-emergence action against MATIN in % (MATIN [8]; 320 g/ha) [%] | Post-emergence action against MATIN in % (MATIN [8]; 1280 g/ha) [%] | Pre-emergence action at 1280 g/ha against ALOMY in % (ALOMY [11]) [%] | Pre-emergence action at 320 g/ha against AMARE in % (AMARE [12]) | Pre-emergence action against AMARE in % (AMARE [12]) [%] | Pre-emergence action against SETVI in % (SETVI [14]) [%] | Pre-emergence action against VIOTR in % (VIOTR [15]) [%] | Post-emergence action against STEME in % (STEME [16]; 1280 g/ha) [%] | Pre-emergence action at 1280 g/ha against AVEFA in % (AVEFA [17]) [%] | Post-emergence action against ALOMY in % (ALOMY [18]) [%] | Post-emergence action against LOLRI in % (LOLRI) [%] | Pre-emergence action at 1280 g/ha against ECHCG in % (ECHCG [20]) [%] | further results |
| --- | --- | --- | --- | --- | --- | --- | --- | --- | --- | --- | --- | --- | --- | --- | --- | --- | --- | --- | --- | --- | --- |
| CCOC(=O)COc1nn(-c2ccccc2)c(-c2ccc(F)cc2)c1Br [I-056] | 80 | 80 | 80 | 80 | 90 | 100 | good herbicidal efficacy | 90 | 80 | 80 | 90 | 80% | 100 | 100 | 80 | 90 | 80 | 90 | – | – | Post-emergence action against SETVI in % (SETVI [7]): 80%; Post-emergence action against AVEFA in % (AVEFA [9]): 90%; Pre-emergence action against HORMU in % (HORMU [10]): 80%; Pre-emergence action at 1280 g/ha against CYPES in % (CYPES): 90%; Post-emergence action against PHBPU in % (PHBPU [13]): 80% |
| O=C(O)COc1nn(-c2ccccc2)c(-c2ccc(F)cc2)c1Br [I-057] | 90 | 80 | 80 | 80 | 80 | 100 | good herbicidal efficacy | 100 | 80 | 90 | 90 | 100% and 90% | 100 | 90 | 100 | 90 | 80 | 90 | 80 | 80 | Pre-emergence action against PHBPU in % (PHBPU [19]): 90%; Pre-emergence action against STEME in % (STEME [5]; 320 g/ha): 80%; Post-emergence action against AVEFA in % (AVEFA [9]): 90%; Pre-emergence action against VERPE in % (VERPE [21]): 90%; Post-emergence action against PHBPU in % (PHBPU [13]): 90%; Post-emergence action against STEME in % (STEME [16]; 320 g/ha): 80%; Post-emergence action against HORMU in % (HORMU [22]): 80% |
| COC(=O)C(C)Oc1nn(-c2cccc(F)c2)c(-c2cccc(F)c2)c1C#N (stereo not drawn) [I-067] | – | – | – | – | – | 90 | good herbicidal efficacy | 90 | – | 80 | 90 | 90% | 100 | 100 | 100 | 90 | 80 | 100 | 90 | 80 | Post-emergence action against ECHCG in % (ECHCG [23]): 90%; Pre-emergence action at 1280 g/ha against CYPES in % (CYPES): 90%; Post-emergence action against VIOTR in % (VIOTR [24]): 80%; Post-emergence action against STEME in % (STEME [16]; 320 g/ha): 80%; Post-emergence action against HORMU in % (HORMU [22]): 80% |
| COC(=O)[C@@H](C)Oc1nn(-c2ccccc2)c(-c2ccc(F)cc2)c1C#N [I-130] | 90 | 90 | 90 | 90 | 90 | 100 | – | – | 90 | 90 | – | 100% | 100 | 100 | – | 100 | – | – | 90 | 100 | Pre-emergence action against STEME in % (STEME [5]; 320 g/ha): 90%; Post-emergence action against ECHCG in % (ECHCG [23]): 100%; Pre-emergence action against HORMU in % (HORMU [10]): 100%; Pre-emergence action against VERPE in % (VERPE [21]): 100%; Post-emergence action against VIOTR in % (VIOTR [24]): 90%; Post-emergence action against STEME in % (STEME [16]; 320 g/ha): 90%; Post-emergence action against HORMU in % (HORMU [22]): 80% |
